Data published in patent US12366570B2, “Cell-based ZNT8 assay” (THE JOHNS HOPKINS UNIVERSITY, priority 2019, dated 2025).

Assays:
ZnT8 [1] = test: Immunoblotting of ZnT8 (mAb20) in total cell lysate; type: cell-based, human; details: 24 hr
Procedure: Immunoblotting. Cells in a 96-well plate were directly resuspended in 50 μl/well 1× Laemmli Sample Buffer (Bio-Rad cat. #1610737). An aliquot of 15 μl SDS-lysate was loaded onto a precast protein gel for SDS-PAGE and subsequent immunoblotting using the following antibodies directed to ZnT8 (mAb20), tubulin (Invitrogen, Cat. #MA1-83256), calnexin (Proteintech, Cat. #10427-2-AP), BAP31 (Proteintech, Cat. #11200-1-AP), IA2 (Proteintech, Cat. #10584-1-AP), TMED3 (Proteintech, Cat. #21902-1-AP), VAMP2 (Proteintech, Cat. #10135-1-AP), Golgin97 (Proteintech, Cat. #12640-1-AP) and HLA-I (Proteintech, Cat. #15240-1-AP). Protein band intensity was measured using ImageJ, and the numerical value for each stressor-treated protein sample was normalized to the untreated sample on the same immunoblot.
SLC30A8 knockdown. To perform gene silencing by RNA interference, a master mix of Opti-MEM reduced serum-free medium (Gibco, cat. #31985-062) was pre-mixed with 0.4% RNAiMAX transfection reagent (Invitrogen, cat. #13778-100) and 75 nM ZnT8 targeting or scrambled siRNA (OriGene cat. #SR325944). The solution was then incubated at room temperature for 10 min to form siRNA-lipid complexes before 50 μl of the master mix was added to each well in a 96-well plate. Cells resuspended in standard culturing media were added in a 1:1 volume to give 7×10^4 cells per well. […]

EndoC-βH1 cells [2] = test: Total cellular insulin content, HTRF insulin assay; type: cell-based, human; details: 24 hr
Procedure: GSIS and insulin quantification. EndoC-βH1 cells with dose titrations of Glc+PA, zinc or cytokines cocktail in a 96-well plate were switched to a Krebs buffer (Alfa Aesar, cat. #J67795). After cell starvation in Krebs buffer for 1 h, EndoC-βH1 cells were replaced with fresh Krebs buffer containing 20 mM glucose plus 45 μM IBMX. After 45 min, the Krebs buffer was collected for measurement of secreted insulin. Cells were then lysed by 100 μl/well Krebs buffer with 1% DDM. Total insulin content was measured in 100-fold diluted cell lysate, A homogeneous time resolved fluorescence (HTRF) based ultra-sensitive insulin kit (Cisbio, cat. #62IN2PEG) was used to detect both secreted and total insulin as described previously (60).

EndoC-βH1 cells [3] = test: CellTox Green cytotoxicity assay; type: cell-based
Procedure: Cytotoxicity Assay. Cell culture and experiments were performed in a 96-well plate in culture media without phenol red (Sigma, Cat. #D4947). Cytotoxicity in cell culture after experimental manipulation was continuously monitored based on the change in the fluorescence intensity of a CellTox Green Dye (Promega, Cat. #G8741) that preferentially stained dead cells with a loss of membrane integrity. The dye was 1:1000 diluted in the culture medium and delivered directly to cells at the same time of dose titrations of Glc+PA, zinc and cytokines. CellTox fluorescence signals were recorded on a FlexStation-3 multi-mode microplate reader with eight replicates at 0, 1, 2, 4, 6, 8, 20, 24, 30, and 48 hr following dye and stressor additions. Viable cells in the control cell culture medium produced no appreciable increases in CellTox fluorescence due to an excellent tolerance of EndoC-βH1 cells to the dye. At the end of experiment, all cells were lysed by adding detergent (DDM) to 0.1% in each well, and the maximum CellTox fluorescence intensity was recoded and used for normalization of the CellTox fluorescence intensity.
SLC30A8 knockdown. To perform gene silencing by RNA interference, a master mix of Opti-MEM reduced serum-free medium (Gibco, cat. #31985-062) was pre-mixed with 0.4% RNAiMAX transfection reagent (Invitrogen, cat. #13778-100) and 75 nM ZnT8 targeting or scrambled siRNA (OriGene cat. #SR325944). The solution was then incubated at room temperature for 10 min to form siRNA-lipid complexes before 50 μl of the master mix was added to each well in a 96-well plate. Cells resuspended in standard culturing media were added in a 1:1 volume to give 7×10^4 cells per well. After 24 h, the transfection media were replaced with complete culturing media. After additional 2 days, cells were exposed to 1× cytokine cocktail, followed by immunoblotting and cytotoxicity analysis as described above.

[4] = test system: endogenous ZnT8 in EndoC-βH1 cells; test: In-cell ZnT8-ELISA tracking the endogenous ZnT8 level under stressor exposure; type: cell-based, human
Procedure: Stressor exposures. PA-BSA conjugation was prepared by adding PA powder to a final concentration of 8 mM in 1.6 mM FFA-free BSA (Sigma, Cat. #A7030-50G) pre-dissolved in 135 mM NaCl, 3.6 mM KCl, 0.5 mM MgCl2, and 10 mM HEPES (pH 7.4). The mixture was incubated with gentle stir at 37° C. and then filter-sterilized and stored at 4° C. as described previously (79). When added to the cell culture, the PA-BSA mixture was diluted 13.3-fold with supplement of glucose to make a 1× Glc+PA solution containing 0.6 mM PA and 48 mM Glc. A cytokine cocktail was prepared before each experiment by mixing individual stock solutions of IL-1β, IFN-γ, IL-17, […] at respective concentrations used previously on human islets and EndoC-PHI cells (37). 1× cytokine cocktail in the culture medium contained 5 ng/ml IL-1β, 10 ng/ml TNF-α, 50 ng/ml IFN-γ and 100 ng/ml IL-17 All cytokines were provided by R&D Systems (Minneapolis, MN, USA). […] After a designated exposure period, the endogenous ZnT8 level in each well was analyzed along with stress-induced cytotoxicity, GSIS and cellular insulin content. […]
In-cell ELISAs. […] The HRP reaction was terminated at 5 min by transferring the reaction mixture to a 96-well opaque microplate for chemiluminescence quantification on a FlexStation-3 multi-mode microplate reader.

ZnT8 [5] = molecular target: T1, ZnT8 (Homo sapiens, UniProt Q8IWU4); details: cited from earlier work
T1 sequence (Q8IWU4 1-369): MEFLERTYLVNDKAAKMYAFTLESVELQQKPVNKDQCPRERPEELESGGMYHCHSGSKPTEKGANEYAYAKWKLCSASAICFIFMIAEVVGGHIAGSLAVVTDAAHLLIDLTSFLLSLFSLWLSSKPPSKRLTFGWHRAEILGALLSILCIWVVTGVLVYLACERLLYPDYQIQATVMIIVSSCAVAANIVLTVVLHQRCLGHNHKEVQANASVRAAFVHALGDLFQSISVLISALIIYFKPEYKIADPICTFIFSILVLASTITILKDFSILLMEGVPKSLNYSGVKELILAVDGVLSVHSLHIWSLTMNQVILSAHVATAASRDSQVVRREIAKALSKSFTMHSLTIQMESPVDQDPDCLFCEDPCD

[6] = 1 μM epoxomicin with 1× cytokines

In the case of `CC[C@H](C)[C@H](NC(=O)[C@H]([C@@H](C)CC)N(C)C(C)=O)C(=O)N[C@H](C(=O)N[C@@H](CC(C)C)C(=O)[C@@]1(C)CO1)[C@@H](C)O` [epoxomicin], the “cytokine-induced downregulation of ZnT8” value (ZnT8 [1]; [6]) is reported as “blocked”, the ZnT8 expression (ZnT8 [1]; epoxomicin alone, 1 μM) is reported as “neither altered ZnT8 expression” and the “cytokine-induced downregulation of insulin” value (EndoC-βH1 cells [2]; [6]) is reported as “blocked”. It also gave a damaged cells (EndoC-βH1 cells [3]; combination of epoxomicin and 1× cytokine, 24 hr exposure) of 26.8%.

In the case of `[Zn]` [zinc], the “cellular insulin content, dose profile” value (EndoC-βH1 cells [2]; increasing stressor concentration) is reported as “increased the insulin content”, the “zinc toxicity (CellTox, FIG. 2F)” value (EndoC-βH1 cells [3]; 600 μM zinc) is reported as “zinc toxicity was evident” and the “cell integrity (CellTox fluorescence)” value (EndoC-βH1 cells [3]; modest zinc exposure (<=200 μM), compared to untreated cells) is reported as “did not alter the cell integrity”. For the same molecule, the “endogenous ZnT8 level, dose profile” value ([4]; extracellular zinc from trace amount (EDTA chelation) to 600 μM) was “biphasic change” and the “zinc concentration at the peak of the biphasic ZnT8 profile” value ([4]; extracellular zinc up to 600 μM) was “around 10 μM”.

B1: mAb20: anti-ZnT8 monoclonal antibody; heavy chain and light chain SEQ ID NOS:32 and 37 (antibody)
heavy: MDMRVPAQLLGLLLLWLRGARCQIQLVQSGPELKKPGETVKISCKASGYIFTNYPMHWVKQAPGKGLKWMGWINTYSGVPTHADDFKGRFAFSLETSANSAFLQINNLKNEDTATYFCTRSRITPTGGYAMDYWGQGTSVTVSSAKTTPPSVYPLAPGSAAQTNSMVTLGCLVKGYFPEPVTVTWNSGSLSSGVHTFPAVLQSDLYTLSSSVTVPSSTWPSETVTCNVAHPASSTKVDKKIVPRDCGCKPCICTVPEVSSVFIFPPKPKDVLTITLTPKVTCVVVDISKDDPEVQFSWFVDDVEVHTAQTQPREEQFNSTFRSVSELPIMHQDWLNGKEFKCRVNSAAFPAPIEKTISKTKGRPKAPQVYTIPPPKEQMAKDKVSLTCMITDFFPEDITVEWQWNGQPAENYKNTQPIMDTDGSYFVYSKLNVQKSNWEAGNTFTCSVLHEGLHNHHTEKSLSHSPGK
light: MDMRVPAQLLGLLLLWLRGARCDVVMTQTPLSLPVSLGDQASISCRSSQSLVHSNGNTYLHWYLQKPGQSPNLLISKVSNRFSGVPERFSGSGSGTDFTLKISRVEAEDLGVYFCSQNTHVPWTFGGGTKLEIKRADAAPTVSIFPPSSEQLTSGGASVVCFLNNFYPKDINVKWKIDGSERQNGVLNSWTDQDSKDSTYSMSSTLTLTKDEYERHNSYTCEATHKTSTSPIVKSFNRNEC
modifications: mAb20 heavy chain; mAb20 light chain
For B1, the binding affinity (ZnT8 [5]) is listed as “subnanomolar”.

B2: mAb39: anti-ZnT8 monoclonal antibody; heavy chain and light chain SEQ ID NOS:52 and 57 (antibody)
heavy: MGWSCIMFFLVATATDVHSQVQLQQPGAELVKPGASVKLSCKASGYSFTTYWMHWVKQRPGQGLEWVGDINPRNGRTNYNEKSKSKATLTVDISSSTVYMQVSSLTSEDSAVYYCAIWSGAMDYWGPGTSVTVSSAKTTAPSVYPLAPVCGDTTGSSVTLGCLVKGYFPEPVTLTWNSGSLSSDVHTFPALLQSGLYTLSSSVTVTTWPSQTITCNVAHPASSTKVDKKIEPRGSPTHKPCPPCPAPNLLGGPSVFIFPPKIKDVLMISLSPMVTCVVVDVSEDDPDVHVSWFVNNVEVHTAQTQTHREDYNSTIRVVSALPIQHQDWMSGKEFKCKVNNKALPAPIERTISKPKGPVRAPQVYVLPPPEEEMTKKQVTLTCMITDFMPEDIYVEWTNNGQTELNYKNTEPVLDSDGSYFMYSKLRVEKKNWVERNSYSCSVVHEGLHNHHTTKSFSRSPGK
light: MKLPVRLLVLMFWIPASSSDVVMTQTPLSLPVSLGDQPSISCKSSQSLVHNNGNTYLHWYLQKPGQSPKLLIYKVSNRFSGVPDRFSGSGSGTDFTLKISRVEAEDLGVYFCSQTTHVPPTFGGGTKLEIKRADAAPTVSIFPPSSEQLTSGGASVVCFLNNFYPKDINVKWKIDGSERQNGVLNSWTDQDSKDSTYSMSSTLTLTKDEYERHNSYTCEATHKTSTSPIVKSFNRGEC
modifications: mAb39 heavy chain; mAb39 light chain
In the case of B2, the binding affinity (ZnT8 [5]) is given as “subnanomolar”.
